Reference: US20260028390A1, “ALPHA1-ANTITRYPSIN FOR USE IN THE TREATMENT OF DISEASES OR DISORDERS OF THE NERVOUS SYSTEM SUCH AS CHRONIC INFLAMMATORY DEMYELINATING POLYNEUROPATHY” (Ageronix SA, priority 2022, published 2026)
“And” between values parts separate entries of the source, which are not always exact repeats. Equal entries are not always repeated.

Assays:
[1] = Bodyweight, CIDP mouse model; format: in vivo; details: per animal, listed as hAAT
Experimental: (§1) C57BL/6 mice were received at 8 weeks of age and housed under controlled conditions for the duration of the study. Three groups of 4 animals each were assigned to the following subcutaneous treatments twice daily at 7:00 AM and 7:00 PM for 2 weeks, from 20 to 35 days after the start of disease induction: • Wild type (WT) mice receiving the vehicle, 0.9% NaCl (positive control) • CIDP mice receiving the vehicle, 0.9% NaCl (negative control) • CIDP mice receiving human AAT (AAT), 50 mg/kg per injection
Disease induction consisted in subcutaneous injection of mouse sciatic nerve homogenate in phosphate buffer saline (PBS)+Freund's adjuvant mixture at 10 mL/kg. For each treatment, 3 different body sites injections were performed. Control mice also received three subcutaneous injections of PBS+Freund's adjuvant at the same 3 different body sites.

[2] = tested on: CMT1A mice B6.Cg-Tg(PMP22)C3Fbas/J; experiment: Sciatic nerve electrophysiology (CMAP, NCV), CMT mice treated with AAT 180 mg/kg/day sc; format: in vivo, mouse
Experimental: (§2) CMT MOUSE MODEL: Non-humanized CMT1A mice B6.Cg-Tg(PMP22)C3Fbas/J (three copies of the PMP22 gene), three groups of 8 animals each.
(§3) DOSAGE: 180 mg/kg/day non-clinical grade AAT (Sigma)
(§4) ADMINISTRATION: Subcutaneous (SC) (bi-daily injection of 90 mg/kg)
(§5) Animals were received at 6 weeks of age and housed under controlled conditions for the duration of the study. The study comprised two groups of 8 transgenic mice (CMT mice) each and one group of 8 age matched wild type (WT) C57B16 mice, serving as positive control. Animals were assigned to the following subcutaneous treatments twice daily at 7:00 AM and 7:00 PM for 2 weeks, starting from 8 weeks and up to 10 weeks of age: • Wild-type (WT, no disease) mice receiving vehicle, 0.9% NaCl (positive control) • CMT1A mice receiving vehicle, 0.9% NaCl (negative control) • CMT1A mice receiving AAT at 90 mg/kg per injection (daily dose 180 mg/kg)
(§6) The efficacy parameters included: • neuromuscular performance (rotarod latency to fall and grip strength test), • sciatic nerve electrophysiology (CMAP amplitude and NCV) • cytokine (IL-6 and TNFα), as well as NfL analysis • sciatic nerve histology (number of axons and axonal diameter),
(§7) On the first day of treatment (Day 1), the neuromuscular and performance of animals was tested with a rotarod test and a grip strength test, as well as sciatic nerve electrophysiology test, which measured the compound muscle action potential (CMAP) and the nerve conduction velocity (NCV). After the last treatment on Day 15, these tests were repeated. Animals were then left untreated for 2 additional weeks to evaluate the duration of the treatment effect. Following the 2-week treatment-free period until 12 weeks of age (Day 30), the behavioural and electrophysiological tests were repeated.

plasma TNFα = experiment: Plasma TNFα quantification, CIDP mouse model; format: in vivo; details: for Plasma TNFα concentration (Mean ± SD): CIDP mice; for TNFα conc: per animal, listed as hAAT
Experimental: as §1
On the day preceding disease induction (Day 1), on the first (Day 20) and on the last (Day 35) treatment day, animals were subjected to blood samplings for the determination of neurofilament light chain (NfL), tumour necrosing factor alpha (TNFα) and TMPRSS5 levels, as described in FIG. 20. In addition, plasma levels of AAT were evaluated on the last treatment day.

[3] = tested on: CMT1A mice B6.Cg-Tg(PMP22)C3Fbas/J; experiment: Rotarod latency to fall, CMT mice treated with AAT 180 mg/kg/day sc; format: in vivo, mouse
Experimental: as §2, §3, §4, §5, §6, §7

[4] = Plasma AAT levels, CMT1A mouse study (50 mg/kg twice daily); format: in vivo; details: CMT1A + AAT group
Experimental: (§8) Animals were split in 3 groups (wild-type control (subcutaneous 0.9% NaCl), CMT1A-vehicle (subcutaneous 0.9% NaCl), CMT1A-human alpha-1 antitrypsin (subcutaneous, twice daily, 50 mg/kg per injection)) of 3 mice each (3 weeks old males of 18±2.5 g at the beginning of study) and all went through the following protocol after 7 days of acclimation on site.
Plasma levels of AAT were evaluated every 5 days from the first day of treatment to the last treatment day.
AAT was not detected in plasma of the wild type control and CMT1A mice treated with vehicle at the analyzed time points (day 14, day 19, day 24 and day 29). The AAT was detected in plasma of CMT1A+AAT group at a mean of 6.07 μg/mL, 6.99 μg/mL, 8.14 μg/mL and 5.22 μg/mL at day 14, day 19, day 24 and day 29 respectively.

plasma IL-6 = experiment: Plasma IL-6 concentration, CMT1A mouse study (50 mg/kg twice daily); format: in vivo; details: for Plasma IL-6 concentration (Mean ± SD): CMT1A mice
Experimental: as §8
Starting from the age of 4 weeks, animals were subjected to blood samplings for the determination of interleukin-6 (IL-6) and tumor necrosing factor alpha (TNFα) levels, as described in FIG. 16.

[5] = 8 weeks old (baseline, Day 1), CMT1A + AAT
[6] = 8 weeks old, CMT + hAAT 180 mg/kg/day SC, 8 mice
[7] = 8 weeks old, CMT + hAAT 180 mg/kg/day SC, individual mouse
[8] = 10 weeks old (Day 15, after 2 weeks AAT 90 mg/kg sc twice daily)
[9] = 12 weeks of age, after 2-week treatment-free period
[10] = 12 weeks old (Day 30, after 2-week treatment-free period)
[11] = CMT mice, AAT 90 mg/kg sc twice a day, 8 to 10 weeks of age, end of treatment
[12] = Day 20, before compound treatment
[13] = 8 weeks old, CMT + hAAT 180 mg/kg/day SC, individual animal

alpha1-antitrypsin (AAT) protein
Bodyweight ([1]; day 1 (before disease induction), in g (unit assumed)): 20.74 and 20.81 and 19.50 and 20.65 | Bodyweight ([1]; day 5 (before treatment), in g (unit assumed)): 20.92 and 21.07 and 20.12 and 20.71 | Bodyweight ([1]; day 9 (before treatment)): 21.26 (2×) and 20.54 and 21.00 | Bodyweight ([1]; day 13 (before treatment), in g (unit assumed)): 21.76 and 21.37 and 20.24 and 21.18 | Bodyweight ([1]; day 17 (before treatment), in g (unit assumed)): 21.92 and 21.54 and 21.35 and 21.90 | Bodyweight ([1]; day 20 (first treatment day), in g (unit assumed)): 22.06 and 21.58 and 21.41 and 22.04 | Bodyweight ([1]; day 23, in g (unit assumed)): 22.21 and 21.71 and 21.43 and 22.13 | Bodyweight ([1]; day 26, in g (unit assumed)): 22.31 and 21.78 and 21.47 and 22.20 | Bodyweight ([1]; day 29, in g (unit assumed)): 22.49 and 21.87 and 21.53 and 22.30 | Bodyweight ([1]; day 32, in g (unit assumed)): 22.68 and 22.00 and 21.64 and 22.45 | Bodyweight ([1]; day 35, in g (unit assumed)): 22.79 and 22.14 and 21.65 and 22.62 | Conduction velocity, group MEAN ([2]; 6 weeks old, CMT + hAAT, 8 mice): 26.266 m/s | Compound muscle action potential (Mean ± SD) [2, 5]: 3.76 ± 0.50 mV | Nerve conduction velocity (Mean ± SD) [2, 5]: 15.96 ± 1.54 m/s | Amplitude, group MEAN [2, 6]: 5.492 mV | Conduction velocity, group MEAN [2, 6]: 16.946 m/s | Amplitude [2, 7]: 4.874 mV and 5.376 mV and 5.322 mV and 9.084 mV and 6.115 mV and 3.753 mV and 5.277 mV and 4.139 mV | Conduction velocity [2, 7]: 18.707 m/s and 16.462 m/s and 10.029 m/s and 19.200 m/s and 17.615 m/s and 9.648 m/s and 25.446 m/s and 18.460 m/s | T1 distal [2, 7]: 3.916 ms and 3.259 ms and 3.449 ms and 4.291 ms and 3.773 ms and 8.247 ms and 7.467 ms and 11.449 ms | T2 proximal [2, 7]: 4.718 ms and 4.170 ms and 4.945 ms and 5.072 ms and 4.624 ms and 9.802 ms and 8.057 ms and 12.262 ms | Compound muscle action potential (Mean ± SD) [2, 8]: 5.41 ± 0.71 mV | Nerve conduction velocity (Mean ± SD) [2, 8]: 21.47 ± 6.07 m/s | NCV vs untreated group [2, 9]: non-significantly different | CMAP vs untreated CMT animals ([2]; 12 weeks of age, after 2-week treatment-free period, P<0.05): significantly higher | Compound muscle action potential (Mean ± SD) [2, 10]: 2.94 ± 0.65 mV | Nerve conduction velocity (Mean ± SD) [2, 10]: 10.50 ± 1.73 m/s | compound muscle action potential amplitude vs CMT mice not treated with AAT [2, 11]: significant increase | nerve conduction velocity vs CMT mice not treated with AAT [2, 11]: significant increase | plasma TNFα concentration compared to the CIDP+vehicle treated group (plasma TNFα; CIDP + AAT, day 35): significant decrease | Plasma TNFα concentration (Mean ± SD) (plasma TNFα; Day 1): 138.46 ± 18.58 pg/mL | Plasma TNFα concentration (Mean ± SD) (plasma TNFα; Day 20): 1397.62 ± 330.96 pg/mL | Plasma TNFα concentration (Mean ± SD) (plasma TNFα; Day 35): 1046.73 ± 144.47 pg/mL | Plasma TNFα, Mean Diff., CIDP + vehicle vs. CIDP + hAAT (Bonferroni's multiple comparisons test) (plasma TNFα; [12]): −187.9 | Plasma TNFα, Significant?, CIDP + vehicle vs. CIDP + hAAT (Bonferroni's multiple comparisons test) (plasma TNFα; [12]): No | Plasma TNFα, Mean Diff., CIDP + vehicle vs. CIDP + hAAT (Bonferroni's multiple comparisons test) (plasma TNFα; Day 35): 385.1 | TNFα conc, group MEAN (plasma TNFα; Day 1): 138.46 pg/mL | TNFα conc, group MEAN (plasma TNFα; Day 20): 1397.62 pg/mL | TNFα conc, group MEAN (plasma TNFα; Day 35): 1046.73 pg/mL | TNFα conc (plasma TNFα; Day 1 (before model induction)): 125.451 pg/mL and 165.501 pg/mL and 135.780 pg/mL and 127.127 pg/mL | TNFα conc (plasma TNFα; Day 20 (before compound treatment)): 1705.849 pg/mL and 1029.281 pg/mL and 1208.445 pg/mL and 1646.907 pg/mL | TNFα conc (plasma TNFα; Day 35): 910.997 pg/mL and 1161.216 pg/mL and 933.130 pg/mL and 1181.571 pg/mL | Rotarod latency (Mean ± SD) [3, 5]: 38.76 ± 4.90 s | Rotarod latency, group Mean ([3]; 8 weeks old, CMT + hAAT 180 mg/kg/day SC, 8 animals): 62.63 s | Rotarod latency, Mean/animal [3, 13]: 63.15 s and 51.81 s and 53.95 s and 52.25 s and 38.51 s and 92.09 s and 74.02 s and 75.23 s | Rotarod latency, set 1 [3, 13]: 55.48 s and 48.88 s and 60.00 s and 47.76 s and 30.45 s and 96.29 s and 74.06 s and 68.88 s | Rotarod latency, set 2 [3, 13]: 61.08 s and 61.14 s and 48.80 s and 53.19 s and 62.45 s and 79.58 s and 65.45 s and 74.87 s | Rotarod latency, set 3 [3, 13]: 72.89 s and 45.41 s and 53.05 s and 55.82 s and 22.62 s and 100.40 s and 82.56 s and 81.93 s | Rotarod latency (Mean ± SD) [3, 8]: 57.77 ± 19.19 s | rotarod latency to fall vs untreated group [3, 9]: non-significantly different | Rotarod latency (Mean ± SD) [3, 10]: 36.92 ± 1.66 s | AAT detected in plasma (mean) ([4]; day 14): 6.07 µg/mL | AAT detected in plasma (mean) ([4]; day 19): 6.99 µg/mL | AAT detected in plasma (mean) ([4]; day 24): 8.14 µg/mL | AAT detected in plasma (mean) ([4]; day 29): 5.22 µg/mL | Plasma IL-6 concentration (Mean ± SD) (plasma IL-6; Day 1 (baseline)): 34.19 ± 1.67 pg/mL | Plasma IL-6 concentration (Mean ± SD) (plasma IL-6; Day 8): 39.10 ± 1.91 pg/mL | Plasma IL-6 concentration (Mean ± SD) (plasma IL-6; Day 14): 84.21 ± 4.727 pg/mL | Plasma IL-6 concentration (Mean ± SD) (plasma IL-6; Day 29): 90.20 ± 3.085 ^† pg/mL | plasma IL-6 concentration vs animals treated with vehicle (plasma IL-6; CMT + AAT, day 29): lower
